Source: patent US20100130432A1, “Non-Natural Amino Acids and Neurotensin Analogues Thereof” (priority 2005, published 2010)
Entries after “also recorded” stand apart in the source; their conditions may differ. Non-standard residues stand in square brackets, D forms with d. Residues, ends and D or L forms follow the SMILES beside them. *: point of attachment. Tle = CC(C)(C)[C@H](N)C(=O)O; X1 = C[C@@H](CCCCCN)C(=O)*

Columns and labels:
[1] = target: NTR-1 (Homo sapiens, UniProt P30989); assay: Competitive NTR binding versus radiolabeled NT[8-13]
NTR-1, sequence (P30989 whole entry, species assumed): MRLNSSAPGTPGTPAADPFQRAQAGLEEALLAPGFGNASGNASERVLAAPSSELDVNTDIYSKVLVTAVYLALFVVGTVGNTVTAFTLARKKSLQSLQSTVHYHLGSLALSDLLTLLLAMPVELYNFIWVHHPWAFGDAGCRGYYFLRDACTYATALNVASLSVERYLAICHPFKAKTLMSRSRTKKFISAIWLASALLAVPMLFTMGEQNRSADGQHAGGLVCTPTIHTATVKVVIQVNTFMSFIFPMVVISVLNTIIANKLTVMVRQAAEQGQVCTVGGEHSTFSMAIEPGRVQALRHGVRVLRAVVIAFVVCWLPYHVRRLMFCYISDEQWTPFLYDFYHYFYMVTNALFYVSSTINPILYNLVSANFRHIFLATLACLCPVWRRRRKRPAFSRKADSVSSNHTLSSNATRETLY

[2] = target: NTR-2 (Homo sapiens, UniProt O95665); assay: as above
NTR-2, sequence (O95665 whole entry, species assumed): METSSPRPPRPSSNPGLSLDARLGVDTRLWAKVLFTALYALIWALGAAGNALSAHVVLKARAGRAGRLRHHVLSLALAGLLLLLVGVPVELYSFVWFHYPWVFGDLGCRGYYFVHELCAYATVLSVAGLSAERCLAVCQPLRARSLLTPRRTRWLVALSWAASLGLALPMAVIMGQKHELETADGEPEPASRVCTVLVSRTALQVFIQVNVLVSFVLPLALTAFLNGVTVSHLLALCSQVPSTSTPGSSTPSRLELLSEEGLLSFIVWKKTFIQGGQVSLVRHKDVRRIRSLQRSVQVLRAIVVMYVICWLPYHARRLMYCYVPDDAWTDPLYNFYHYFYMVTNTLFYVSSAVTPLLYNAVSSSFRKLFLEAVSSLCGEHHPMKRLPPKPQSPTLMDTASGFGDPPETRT

[3] = test system: mouse bone marrow cells; assay: Micronucleus study; type: in vivo; details: initial data
Experimental: Genetic Toxicology. […] Experimental protocols are as follows.
In the micronucleus study, 90 CD-1 mice used in the study consisted of 10/sex/group in Groups 1-4 (control, low-, mid-, and high-dose) and 5/sex in the positive control group. Test peptide as administered orally, the positive control, Cyclophosphamide at 80 mg/kg, as administered orally. Approximately 24 and 48 hours after dosing, mice were killed and bone marrow obtained from both femurs. A slide of a bone marrow suspension was prepared, stained with Wright-Giemsa stain, dried, and scored blind. The number of polychromatic erythrocytes (PCE) among the total erythrocytes (PCE+normochromatic erythrocytes (NCE)) were determined for each animal by counting at least 200 erythrocytes. The number of micronucleated polychromatic erythrocytes (MPCE) then were scored for 2000 PCE per animal. A positive result was obtained, if there is a positive dose-response trend or statistically significant increase in the number of MPCE at one or more dose levels compared to controls.

[4] = test system: adrenergic (alpha1, alpha 2, beta), dopamine, histamine (H1, H2, H3), muscarinic (central, peripheral), nicotinic, opioid (nonselective), orphanin, serotonin …; details: 10^−9, 10^−7 10^−5 M
[5] = in vivo; details: rat
[6] = test system: rats; assay: Maximum tolerated dose; details: rat, in vivo
[7] = test system: rats; assay: Catalepsy, horizontal bar test
Experimental: Cataleptic Analysis. […] To circumvent these potential confounding factors, tests are performed on an animal only once in a quiet, controlled environment.
Catalepsy Assessment. […] Rats were given an IP injection of peptide (5 mg/Kg), saline, or haloperidol (1 mg/kg). After 3 hours, catalepsy was measured using the horizontal bar test. Briefly, the front paws were placed directly on a horizontal bar 5 mm in diameter placed 7.5 cm above the cage floor. The rat was held in this position for 3 sec and then released. The time from release until the paws return to the cage floor was measured and recorded. A cut-off time of 30 sec was observed; this indicated a fully cataleptic animal as cataleptic animals are frozen to the bar. […] Measures were repeated every 30 min for 4 hr. Data are means±SEM (p<0.01).

For `CC(C)C[C@H](NC(=O)[C@@H](NC(=O)[C@H](Cc1ccc(O)cc1)NC(=O)[C@@H]1CCCN1C(=O)[C@H](CCCNC(=N)N)NC(=O)[C@@H](C)CCCCCN)C(C)(C)C)C(=O)O` [ABS201, hLys-Arg-Pro-Tyr-t-Leu-Leu] (X1-RPY[Tle]L-OH), the EC50 [1] was 3.92 ± 0.01 nM, the IC50 [1] was 11.2 ± 0.3 nM and the “affinity for the target receptor (NTR1)” value [1] was “nM affinity”. The “binds less effectively than its parent” value [1] was 50 fold, the NTR-2 affinity [2] was “sub-micromolar” and the micronucleus study result [3] was “inactive”. For the same compound, the “displacement of the receptors' endogenous substrate” value [4] was “No displacement”, the MTD at 48 hr ([5]; iv) was ≥ 100 mg/kg and the MTD at 48 hr ([5]; po) was ≥ 500 mg/kg. For the same compound, the “lower limit for the MTD” value [6] was ≥ 100 times the ED50, the catalepsy ([7]; IP 5 mg/kg, 5 mg/kg) was “does not induce catalepsy; also recorded: does not induce a cataleptic state” and the catalepsy ([7]; Table 11) was “No”.
